Measurements reported in patent publication US20250213587A1, “ITK INHIBITORS FOR INCREASING TH1 CELL ACTIVITY” (Corvus Pharmaceuticals, Inc., priority 2022, published 2025).

Assays:
[1] = system: imiquimod-induced psoriasis; assay: Imiquimod-induced model of psoriasis; details: in vivo
ZAP-70 phosphorylation = ZAP-70 phosphorylation in Jurkat cells; assay type: cell-based, human; details: anti-CD3
Method: (§1) Jurkat human acute T cell leukemia cell line (ATCC, TIB-152) was cultured in RPMI 1640 medium supplemented with Penicillin-Streptomycin (Gibco) and 10% fetal bovine serum (FBS) at 37° C. and 5% CO2. […] The cell pellet was resuspended in NP40 lysis buffer (Invitrogen) containing protease and phosphatase inhibitors cocktail (Cell Signaling Technology), incubated for 30 minutes on ice, and centrifuged at 15, 000×g for 10 minutes. The lysate supernatant from each condition containing 50 μg of total protein was resolved on an 8% Bis-Tris gel (Invitrogen) under reducing condition and transferred onto a nitrocellulose membrane (Invitrogen) using an iBlot2 gel transfer device. Unless specified otherwise, all reagents described above were purchased from Thermo Fisher Scientific. Membranes were blocked for 1 hour at room temperature and incubated overnight at 4° C. with primary antibodies (1:1000 dilution) in Odyssey blocking buffer (LI-COR) with 0.2% Tween 20. Membranes were washed 4 times (5 min each) in Tris-buffered saline, 0.10% Tween 20 and incubated with IRDye 800CW Anti-Rabbit IgG and IRDye 700CW Anti-Mouse IgG (LI-COR) secondary antibodies (1:20,000 dilution) for 1 hour at room temperature. After washes, membranes were imaged in the LI-COR Odyssey® Fc Imaging System. […]

[2] = system: MRL lymphoproliferation strain mice; assay: MRL/lpr lupus model; details: mouse, in vivo
[3] = system: CD4+ T cells, Sézary cells; assay: Cytokine production by CD4+ cells and Sézary cells stimulated with anti-CD3/28/2; assay type: cell-based, human
Description: This is significant because cytokines secreted by Th2 cells are involved in inflammation, allergy and autoimmunity. […] There was no effect on Th1-dependent IFNg, except at high concentrations. Inhibition of Th2 cells blocks production of various inflammatory cytokines, including IL-4, IL-5, IL-9, IL-13, and IL17a.

PLCγ1 phosphorylation = assay: Inhibition of PLCγ1 phosphorylation in Jurkat cells; assay type: cell-based, human; details: anti-CD3
Method: as §1

[4] = Glutathione reactivity assay; assay type: physicochemical; details: 37° C.
Method: The reactivity of acrylamides with glutathione was determined by measuring the disappearance of starting material and appearance of the adduct with glutathione in HPLC-MS spectra as a function of time. All the stock solutions and solvents were bubbled with nitrogen and all reactions were run under nitrogen at 37° C. A 250 μL volume of 20 mM test compound in DMSO was mixed with 250 μL of 2.0 mM indoprofen (used as internal standard) in DMSO and 4.5 mL of 11.1 mM glutathione in 100 mM potassium phosphate buffer (pH 7.4). Each reaction contained 1 mM test compound, 0.1 mM indoprofen, and 10 mM glutathione in 100 mM potassium phosphate buffer and 10% DMSO. The reaction mixture was stirred at 37° C. for 5 hours and sampled for HPLC-MS analysis every hour. The reaction product, internal standard and starting materials were separated by liquid chromatography using an Agilent Eclipse XBD-C18 column (4.6×150 mm, 3.5 um) and quantified by UV absorption. The mobile phase consisted of solvent A (water) and solvent B (acetonitrile), employing a gradient of 10% to 95% solvent B over 10 min.

Fyn = Fyn (Homo sapiens, UniProt P06241); assay: Human kinome profiling at 1.0 μM, Fyn; assay type: biochemical; details: read-out: percent control, Fyn
ITK = biological target: T1, ITK (Homo sapiens, UniProt Q08881); assay: Human kinome profiling at 1.0 μM, ITK; assay type: biochemical; parameters: purchased Invitrogen
T1 sequence (Q08881 1-620): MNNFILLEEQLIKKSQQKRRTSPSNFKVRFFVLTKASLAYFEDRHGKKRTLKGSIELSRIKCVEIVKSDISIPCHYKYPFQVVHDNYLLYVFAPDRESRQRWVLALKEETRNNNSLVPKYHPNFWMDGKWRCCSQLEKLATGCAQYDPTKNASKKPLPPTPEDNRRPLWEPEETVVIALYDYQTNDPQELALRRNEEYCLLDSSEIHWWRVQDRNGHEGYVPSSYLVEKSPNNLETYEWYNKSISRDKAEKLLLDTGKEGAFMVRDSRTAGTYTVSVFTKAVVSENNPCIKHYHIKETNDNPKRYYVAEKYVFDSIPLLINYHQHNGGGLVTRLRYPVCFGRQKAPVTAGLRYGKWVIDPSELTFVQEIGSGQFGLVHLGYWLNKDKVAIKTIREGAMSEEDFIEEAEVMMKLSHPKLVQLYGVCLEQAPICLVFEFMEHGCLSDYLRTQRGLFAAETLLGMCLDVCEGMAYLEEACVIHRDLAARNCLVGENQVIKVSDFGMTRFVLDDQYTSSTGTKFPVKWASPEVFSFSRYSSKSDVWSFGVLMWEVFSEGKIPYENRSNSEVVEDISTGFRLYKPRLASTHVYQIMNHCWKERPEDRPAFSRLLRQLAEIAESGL

Chain of Fyn (P06241 whole entry): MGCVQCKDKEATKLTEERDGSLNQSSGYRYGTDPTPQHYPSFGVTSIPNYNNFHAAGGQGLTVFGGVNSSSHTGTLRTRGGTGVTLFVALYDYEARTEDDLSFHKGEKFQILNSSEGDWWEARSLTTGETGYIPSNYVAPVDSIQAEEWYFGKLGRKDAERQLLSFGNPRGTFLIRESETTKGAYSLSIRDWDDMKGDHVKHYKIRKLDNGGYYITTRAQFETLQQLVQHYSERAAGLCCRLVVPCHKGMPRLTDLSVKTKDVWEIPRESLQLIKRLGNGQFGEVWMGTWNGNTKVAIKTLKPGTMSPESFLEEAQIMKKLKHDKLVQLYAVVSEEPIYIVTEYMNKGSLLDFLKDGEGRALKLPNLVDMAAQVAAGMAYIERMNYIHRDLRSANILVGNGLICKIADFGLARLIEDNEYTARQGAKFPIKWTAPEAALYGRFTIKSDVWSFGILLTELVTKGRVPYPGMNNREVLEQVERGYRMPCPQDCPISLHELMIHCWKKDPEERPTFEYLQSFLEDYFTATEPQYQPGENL

## C=CC(=O)N1CCCN(C(=O)c2cc(Sc3cnc(NC(=O)C4CC4)s3)c(C)cc2OC)C[C@H]1C [CPI-818]
[1]
  dermal inflammation: significantly reduced
  skin thickening: significantly reduced
ZAP-70 phosphorylation
  phosphorylation of ZAP-70: but not ZAP-70
[2]
  lymphadenopathy: inhibits
  proteinuria: inhibits
[3]
  Interferon gamma (IFNg) production: only inhibited at high concentrations
[3]; CD4+ T cells
  Th2 cytokine production: dose-dependent inhibition of Th2 cytokine
PLCγ1 phosphorylation
  phosphorylation of PLCγ1: dose-dependently inhibited
[4]; 3 h
  stability of acrylamide in presence of glutathione: minimal loss
[4]; physiological glutathione, 5 h
  loss in presence of glutathione: 4%
Fyn
  remaining activity at 1 µM: 99%
ITK
  inhibition at 1 µM: > 95%
